# Test system: Desulfovibrio longus ATCC 51456
# Assay: Biocidal efficacy (complete bacterial kill in 2 hours) and Synergy Index against anaerobic sulfate-reducing bacteria
# Format: cell-based
# Details: 35° C.
# Protocol: Surfactants and biocides were evaluated for synergy by determining the synergy index (S.I.) of the combination. Synergy index was calculated based on the concentration required to achieve a certain level of bacterial kill when the two antimicrobial compounds (A and B) are used alone and in combinations. The tests organisms were anaerobic sulfate-reducing bacteria (Desulfovibrio longus ATCC #51456). Inside an anaerobic chamber (Bactron anaerobic chamber), a deoxygenated sterile salt solution (3.1183 g of NaCl, 1.3082 mg of NaHCO3, 47.70 mg of KCl, 72.00 mg of CaCl2, 54.49 mg of MgSO4, 172.28 mg of Na2SO4, 43.92 mg of Na2CO3 in 1 L water) was inoculated with Desulfovibrio longus ATCC 51456 to a final bacterial concentration of 10^6 to 10^7 CFU/mL. Aliquots of this cell suspension were then treated with glutaraldehyde, and each of Surf A and B at selected active concentrations. After incubation at 35° C. for 2 hours, viable bacteria in the aliquots were enumerated using serial dilution method. […] SI is calculated as follows: Ca/CA+Cb/CB=Synergy Index (“SI”) Wherein: • Ca=Concentration of biocide A required to achieve a certain level of bacterial kill when used in combination with B • CA=Concentration of biocide A required to achieve a certain level of bacterial kill when used alone • Cb=Concentration of biocide B required to achieve a certain level of bacterial kill when used in combination with A • CB=Concentration of biocide B required to achieve a certain level of bacterial kill when used alone When the sum of Ca/CA and Cb/CB is greater than one, antagonism is indicated.
smiles,measurement,setting,value
"O=CCCCC=O [Glut, glutaraldehyde]","Concentration (active ppm) for complete bacterial kill in 2 hours, Glut","Table 1, Glut alone or in combination with Surf. A, 10^6 to 10^7 CFU/mL",8.8 active ppm
same,"Concentration (active ppm) for complete bacterial kill in 2 hours, Glut","Table 2, Glut alone or in combination with Surf. B",19.8 active ppm
same,"Concentration (active ppm) for complete bacterial kill in 2 hours, Glut","Table 3, Glut alone or in combination with Surf. C",19.8 active ppm

# Reference: patent US20170223953A1, “MICROBICIDAL COMPOSITION” (Dow Global Technologies LLC, priority 2016, published 2017)
